Laboratory results as given in patent US7858738B2, “Synthetic human peptides and pharmaceutical compositions comprising them for the treatment of systemic lupus erythematosus” (Yeda Research and Development Co., Ltd., priority 2001, dated 2010).

Assays:
T cell priming = details: administered in PBS; Waisman et al., 1997; cited from earlier work
PBL of SLE patients = assay: Proliferative response of PBL of SLE patients to the human 16/6Id mAb; format: cell-based; details: PBL of one SLE patient; for inhibition of the proliferative responses of PBL to human 16/6Id mAb: FIG. 7, reversed murine peptides as controls
Procedure: (§1) Induction and treatment of experimental SLE. In order to induce experimental SLE, BALB/c mice were immunized with 1-2 μg of the human mAb 16/6Id and boosted 3 weeks later. For the prevention of experimental SLE, mice were given hCDR1 or hCDR3 (mCDR1 or revmCDR1 as control peptide in Example 12) intravenously (i.v.) or s.c. concomitant with the immunization, and were injected weekly thereafter for 5 weeks. Treatment of an established disease started three and a half months following disease induction with the 16/6Id, when clinical manifestations were already observed. In Example 12, mice received 10 weekly injections (i.v. or s.c.) of mCDR1 or revmCDR1 at a dose of 100 μg/mouse. Prevention and treatment of SLE-like disease in (NZB×NZW)F1 mice with the hCDR1 or mCDR1 peptide. For prevention of SLE, mice at the age of 2 months, before disease manifestations are observed, were injected s.c. with hCDR1 (or mCDR1 in Example 12, 250 μg/mouse) once a week for 10 weeks. To treat an established disease, mice at the age of 5-7 months were injected with hCDR1 (in Example 12, mCDR1 s.c., 250 μg/mouse) once a week for 10 weeks. Proliferative Responses. PBL were isolated from heparinized venous blood by Ficoll-Hypaque (Pharmacia) density-gradient centrifugation. All assays were performed, in triplicate, in flat-bottomed microtiter plates (Falcon, Becton Dickinson, Oxmard, Calif., USA) in which 2×10^5 PBL were cultured in enriched RPMI-1640 as described (Dayan et al., 2000). The PBL were exposed to various concentrations (0.1-40 μg/well) of the human anti-DNA 16/6Id mAb with and without the addition of the various CDR-based peptides at a concentration of at least 10-fold excess over that of the 16/6Id. Phytohemagglutinin (PHA; 2 μg/well) was used as a control for culture conditions at each experiment. The cultures were incubated in 7.5% CO2 at 37° C. for 6 days. Eighteen hours before the cells were harvested, [^3H]-thymidine (0.5μ Ci of 5 Ci/mmol) (Nuclear Research Center, Negev, Israel) was added to all cultures. Results are expressed as the mean thymidine incorporation in counts per minute (CPM) of triplicate culture±SD, or as stimulation index (S.I.; the ratio of mean CPM at the optimal concentration of the human 16/6Id to the mean CPM in the presence of medium alone). A S.I.≧2 was considered a positive response (Dayan et al., 2000). Inhibition (the ratio of mean CPM in the presence of the 16/6Id and various CDR-based peptides to the mean CPM with the 16/6Id without the CDR-based peptide) above 50% was considered positive. Induction of Cytokine Production. Mice that were immunized with the human 16/6Id mAb and either treated or not with the CDR-based peptide, were killed at different periods during or after treatment with the peptide. Splenocytes and lymph node cells (LNC) were harvested and incubated (5×10^6/ml) in the presence of the 16/6Id. Supernatants were collected after 48 and 72 h. Assessment of Cytokines in the Supernatants. Supernatants were collected 48 hours following the initiation of the cultures and stored at −70° C. Measurements of IL-2, IL-10, IFN-γ, and TNF-α were performed by ELISA by using the relevant standards, capture and detecting Abs (Pharmingen) according to the manufacturer's instructions. TGF-β was determined by an ELISA. Briefly, plates were coated with the recombinant human TGF-β1 sRIII/Fc chimera (R & D Systems Inc., Minneapolis, Minn., USA), and the second Ab used was the biotinylated anti-human TGF-β1 antibody (R & D Systems Inc.). The substrate solution used was TMB color Reagent (Helix Diagnostics, West Sacramento, Calif.), and enzyme activity was evaluated by using 570- and 630-nm filters. Detection of SLE-Associated Clinical and Pathological Manifestations. Proteinuria was measured semiquantitatively by using Combistix kit (Ames Division, Bayer Diagnostics, Newbury, U.K.). White blood cells (WBC, for leukopenia) were counted after a 10-fold dilution of heparinized blood in distilled water containing 1% acetic acid (vol/vol). […]

[1] = test system: SLE prone mice (NZB×NZW) F1 or MRL/lpr/lpr; details: Eilat et al., 2000 and 2001; cited from earlier work
MMP-3 [2] = assay: MMP-3 immunostaining of kidney sections of 16/6Id immunized BALB/c mice; format: in vivo; details: prevention and treatment experiments; glomeruli and interstitium; FIG. 22
Procedure: (§2) Induction and treatment of experimental SLE. In order to induce experimental SLE, BALB/c mice were immunized with 1-2 μg of the human mAb 16/6Id and boosted 3 weeks later. For the prevention of experimental SLE, mice were given hCDR1 or hCDR3 (mCDR1 or revmCDR1 as control peptide in Example 12) intravenously (i.v.) or s.c. concomitant with the immunization, and were injected weekly thereafter for 5 weeks. Treatment of an established disease started three and a half months following disease induction with the 16/6Id, when clinical manifestations were already observed. In Example 12, mice received 10 weekly injections (i.v. or s.c.) of mCDR1 or revmCDR1 at a dose of 100 μg/mouse. Prevention and treatment of SLE-like disease in (NZB×NZW)F1 mice with the hCDR1 or mCDR1 peptide. […] Results are expressed as the mean thymidine incorporation in counts per minute (CPM) of triplicate culture±SD, or as stimulation index (S.I.; the ratio of mean CPM at the optimal concentration of the human 16/6Id to the mean CPM in the presence of medium alone). […] TGF-β was determined by an ELISA. […] The substrate solution used was TMB color Reagent (Helix Diagnostics, West Sacramento, Calif.), and enzyme activity was evaluated by using 570- and 630-nm filters. […] Proteinuria was measured semiquantitatively by using Combistix kit (Ames Division, Bayer Diagnostics, Newbury, U.K.). […]

MMP-9 [3] = assay: MMP-9 activity in sera of (NZB×NZW)F1 mice (gel zymography); format: in vivo; details: for activity of MMP-9 in the sera: treatment of sick mice, FIG. 20B right
Procedure: as §1, with “A S.I.≧2 was considered a positive response (Dayan et al., 2000). Inhibition (the ratio of mean CPM in the presence of the 16/6Id and various CDR-based peptides to the mean CPM with the 16/6Id without the CDR-based peptide) above 50% was considered positive. Induction of Cytokine Production. Mice that were immunized with the human 16/6Id mAb and either treated or not with the CDR-based peptide, were killed at different periods during or after treatment with the peptide. Splenocytes and lymph node cells (LNC) were harvested and incubated (5×10^6/ml) in the presence of the 16/6Id. Supernatants were collected after 48 and 72 h. Assessment of Cytokines in the Supernatants. Supernatants were collected 48 hours following the initiation of the cultures and stored at −70° C. Measurements of IL-2, IL-10, IFN-γ, and TNF-α were performed by ELISA by using the relevant standards, capture and detecting Abs (Pharmingen) according to the manufacturer's instructions.” left out, “Briefly, plates were coated with the recombinant human TGF-β1 sRIII/Fc chimera (R & D Systems Inc., Minneapolis, Minn., USA), and the second Ab used was the biotinylated anti-human TGF-β1 antibody (R & D Systems Inc.).” left out, “Detection of SLE-Associated Clinical and Pathological Manifestations.” left out

MMP-3 [4] = assay: MMP-3 levels in sera of 16/6Id immunized BALB/c mice (Western blot); format: in vivo; details: prevention and treatment protocols, 100 μg/mouse; FIG. 21A
Procedure: as §2

MMP-3 [5] = assay: MMP-3 levels in sera of (NZB×NZW)F1 mice (Western blot); format: in vivo
Procedure: as §2, with “peptide. For prevention of SLE, mice at the age of 2 months, before disease manifestations are observed, were injected s.c. with hCDR1 (or mCDR1 in Example 12, 250 μg/mouse) once a week for 10 weeks. To treat an established disease, mice at the age of 5-7 months were injected with hCDR1 (in Example 12, mCDR1 s.c., 250 μg/mouse) once a week for 10 weeks. Proliferative Responses. PBL were isolated from heparinized venous blood by Ficoll-Hypaque (Pharmacia) density-gradient centrifugation.” for “peptide.”, “U.K.). White blood cells (WBC, for leukopenia) were counted after a 10-fold dilution of heparinized blood in distilled water containing 1% acetic acid (vol/vol).” for “U.K.).”

MMP-9 [6] = assay: MMP-9 activity in sera of 16/6Id immunized BALB/c mice; format: in vivo; details: for MMP-9 activity in sera: prevention and treatment protocols, 100 μg/mouse, FIG. 21B
Procedure: as §2, with “peptide. For prevention of SLE, mice at the age of 2 months, before disease manifestations are observed, were injected s.c. with hCDR1 (or mCDR1 in Example 12, 250 μg/mouse) once a week for 10 weeks. To treat an established disease, mice at the age of 5-7 months were injected with hCDR1 (in Example 12, mCDR1 s.c., 250 μg/mouse) once a week for 10 weeks. Proliferative Responses. PBL were isolated from heparinized venous blood by Ficoll-Hypaque (Pharmacia) density-gradient centrifugation.” for “peptide.”, “U.K.). White blood cells (WBC, for leukopenia) were counted after a 10-fold dilution of heparinized blood in distilled water containing 1% acetic acid (vol/vol).” for “U.K.).”

MMP-9 [7] = assay: MMP-9 immunostaining of kidney sections of 16/6Id immunized BALB/c mice; format: in vivo; details: prevention and treatment experiments; glomeruli and interstitium; FIG. 22
Procedure: as §2

BALB/c mice = assay: Treatment of 16/6Id-induced experimental SLE in BALB/c mice; format: in vivo; details: Table 12, 300 μg/mouse weekly
Procedure: as §1

(NZB×NZW)F1 mice [8] = assay: Treatment of established SLE-like disease in (NZB×NZW)F1 mice; format: in vivo; details: 300 μg/mouse, age 7 months
Procedure: as §1

(NZB×NZW)F1 mice [9] = assay: Transfer of splenocytes of peptide-treated mice into (NZB×NZW)F1 mice with full-blown disease; format: in vivo; details: Table 14 (repeat experiment), recipients of 20 × 10^6 spleen cells from treated mice
Description: It was of importance to investigate whether the beneficial effects of treatment with hCDR1, that are manifested by the down-regulation of disease manifestations, can be transferred by spleen cells of treated mice. To this end, we have performed an experiment in which 8-month old (NZB×NZW)F1 mice, that suffer already from the full-blown lupus-like disease, were divided into 2 groups. Group 1 was not treated and mice of group 2 were transferred with 20×10^6 spleen cells of 3-month old (NZB×NZW)F1 mice that were injected 3 times (s.c., every other day) with 300 μg/mouse of hCDR1. All splenocytes were injected intraperitoneally. Mice were tested for anti-dsDNA autoantibody production, disease manifestations, and were sacrificed 4 weeks after cell transfer.
The experiment was repeated a few more times using revhCDR1 as control.

YYCARFLWEPYAMDYWGQGS (Murine) [mCDR3, murine peptide based on CDR3 of the VH chain of murine mAb 5G12]
T cell priming to the appropriate mCDR peptide or to the whole anti-DNA 16/6Id mAb (T cell priming): inhibiting T cell priming
inhibition of the proliferative responses of PBL to the human 16/6Id mAb (PBL of SLE patients; FIG. 6): did not inhibit
prevention or treatment of SLE induced by human 16/6Id mAb or spontaneous [1]: either prevent or treat an already established SLE

TGYYMQWVKQSPEKSLEWIG [mCDR1]
expression levels of MMP-3 in the kidneys (MMP-3 [2]): down-regulated
MMP-9 activity in the serum (MMP-9 [3]; prevention protocol: 250 μg/mouse s.c. weekly for 10 weeks from age 2 months, FIG. 20B): reduction
activity of MMP-9 in the sera (MMP-9 [3]): specifically down-regulated
T cell priming to the appropriate mCDR peptide or to the whole anti-DNA 16/6Id mAb (T cell priming): inhibiting T cell priming
levels of MMP-3 in sera (MMP-3 [4]): could down regulate
two lower bands of MMP-3 in the serum (MMP-3 [5]; prevention protocol: 250 μg/mouse s.c. weekly for 10 weeks from age 2 months, FIG. 20A): reduction
levels of MMP-3 in the sera (MMP-3 [5]; treatment of sick mice, FIG. 20A right): specifically down-regulated
prevention or treatment of SLE induced by human 16/6Id mAb or spontaneous [1]: either prevent or treat an already established SLE
activity of sera comparable to pure active MMP-9 (MMP-9 [6]; MMP-9 activity assay system, preliminary, unimmunized 7 ng/ml, 16/6Id immunized 16 ng/ml): 8.5 ng/mL
MMP-9 activity in sera (MMP-9 [6]): could down regulate
expression levels of MMP-9 in the kidneys (MMP-9 [7]): down-regulated

GIWEEGKGPPQRIWSWYYG (Synthetic peptide prepared in the reversed order of SEQ ID NO 6.) [revhCDR1, control peptide synthesized in the reversed order of hCDR1, reference compound]
Anti-dsDNA antibodies 1:1250, Mean ± SD (BALB/c mice; 16/6Id alone 0.47 ± 0.3): 0.35 ± 0.3
Proteinuria g/l, Mean ± SD (BALB/c mice; 16/6Id alone 0.58 ± 0.34): 0.8 ± 0.3 g/L
Anti-16/6 Id antibodies 1:10000, Mean ± SD (BALB/c mice; 16/6Id alone 0.89 ± 0.1): 0.95 ± 0.13
Intensity of ICD in kidneys, Mean ± SD (BALB/c mice; 16/6Id alone 1.6 ± 0.55): 0.85 ± 0.75
WBC/mm^3, Mean ± SD (BALB/c mice; 16/6Id alone 2800 ± 300): 4180 ± 831 /mm^3
Proteinuria g/L ± SEM ((NZB×NZW)F1 mice [8]; following treatment No 5, untreated 2.65 ± 1.76): 6.94 ± 2.53 g/L
Proteinuria g/L ± SEM ((NZB×NZW)F1 mice [8]; following treatment No 7, untreated 3.89 ± 2.73): 6.76 ± 2.91 g/L
Proteinuria g/L ± SEM ((NZB×NZW)F1 mice [8]; following treatment No 9, untreated 7.55 ± 3.95): 5.99 ± 3.08 g/L
I.C.D ± SEM ((NZB×NZW)F1 mice [9]; non-treated 2.3 ± 0.26): 1.7 ± 0.23
Proteinuria g/L ± SEM ((NZB×NZW)F1 mice [9]; non-treated 10.9 ± 3.05): 5.38 ± 2.34 g/L

SGQGWYDMAYPEWLFRACYY (Synthetic peptide prepared in reversed order of SEQ ID NO 3.) [revmCDR3, control peptide synthesized in the reversed order of mCDR3, reference compound]
inhibition of the proliferative responses of PBL to human 16/6Id mAb (PBL of SLE patients): failed to inhibit significantly

GIWELSKEPSQKVWQMYYGT (Synthetic peptide prepared in the reversed order of SEQ ID NO 1.) [revmCDR1, control peptide synthesized in the reversed order of mCDR1]
activity of MMP-9 in the sera (MMP-9 [3]): not
levels of MMP-3 in sera (MMP-3 [4]): did not affect
inhibition of the proliferative responses of PBL to human 16/6Id mAb (PBL of SLE patients): failed to inhibit significantly
MMP-9 activity in sera (MMP-9 [6]): did not affect
